In PubChem BioAssay (NCI):
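How tested: cells in 96-well plates exposed to compound for 48 hours at five concentrations. TGI marks complete inhibition of growth.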

How the values were obtained:
Assay in all cases: NCI anticancer screen, dose series, 48 h
[1] = system: ACHN renal
[2] = system: NCI-H23 lung
[3] = system: HT29 colon
[4] = system: DU-145 prostate
[5] = system: UACC-62 melanoma
[6] = system: SF-295 CNS
[7] = system: HS 578T breast
[8] = system: UACC-257 melanoma
[9] = system: MDA-N
[10] = system: MOLT-4 leukemia
[11] = system: MDA-MB-231 breast
[12] = system: IGROV1 ovarian

Structure (SMILES) | TGI [1] [µM] | TGI [2] [µM] | TGI [3] [µM] | TGI [4] [µM] | TGI [5] [µM] | TGI [6] [µM] | TGI [7] [µM] | TGI [8] [µM] | TGI [9] [µM] | TGI [10] [µM] | TGI [11] [µM] | TGI [12] [µM]
N#CCCC1(CCC#N)S(=O)(=O)OCCOS1(=O)=O | > 100 | > 100 | > 100 | > 100 | > 100 | > 100 | 78.4 | > 100 | > 100 | > 100 |  | 
CCC1(c2ccc(OC)c(OC)c2)CCN(S(=O)(=O)c2ccc(C)cc2)C1 (stereo not drawn) | > 100 | > 100 | > 100 | > 100 | > 100 | > 100 |  | > 100 | > 100 | 64.1 | > 100 | > 100
COc1ccc2nc3c4c(nccc4c2c1)-c1ncccc1C3=O | 0.174 | 0.265 | 1.14 | 0.023 | 0.159 | 0.278 |  | 0.196 | 0.128 | 5.31 | 3.94 | 0.279
COC(=O)C(=O)C(C(=O)OC)C(=O)C(=O)Nc1cc(Cl)c(C)cc1S(=O)(=O)O (stereo not drawn) | > 100 | > 100 | > 100 |  | > 100 | > 100 |  | > 100 |  | > 100 |  | > 100
Cc1cc(C)c(NS(=O)c2ccc(Cl)cc2)c(C)c1 (stereo not drawn) | > 100 | > 100 | > 100 | > 100 |  | > 100 |  | > 100 | > 100 | > 100 |  | 
Cc1c2c(n3c(nc4ccccc43)c1C#N)N(c1ccc(F)cc1)CC2 | > 100 | > 100 | > 100 | > 100 | > 100 | > 100 | > 100 | > 100 |  |  |  | > 100
Cc1ccc(S(=O)(=O)c2ccc(C)cc2[N+](=O)[O-])c([N+](=O)[O-])c1 | > 100 | > 100 | > 100 |  | > 100 | > 100 |  |  |  |  |  | > 100
Cc1c(-c2coc(-c3ccc([N+](=O)[O-])cc3)n2)c(=O)n(-c2ccccc2)n1C | > 100 | > 100 | > 100 |  | > 100 | > 100 |  | > 100 |  | > 100 |  | > 100
COP12(OC)NC(=O)OC1(C(F)(F)F)c1ccccc1O2 (stereo not drawn) | > 100 | > 100 | > 100 |  | > 100 | > 100 |  | > 100 |  | > 100 |  | > 100
CC(C)CCNC(=O)c1ccc(CNC(=O)/C=C/c2ccc3ccccc3c2)cc1 | > 100 | > 100 |  | > 100 | > 100 | > 100 |  | > 100 | > 100 | > 100 | > 100 | 
O=C(O)C12C3CCC(C3)C1(C(=O)O)C1CCC2C1 (stereo not drawn) | > 100 | > 100 | > 100 |  | > 100 | > 100 |  | > 100 |  | > 100 |  | > 100
N#Cc1ccc(C2OCC3CC=CCC3CO2)cc1 (stereo not drawn) | > 100 | > 100 | > 100 |  | > 100 | > 100 |  | > 100 |  | > 100 |  | > 100
Nc1c(F)c(F)c2c(c1F)N(CCCCCl)c1ccccc1S2 | > 100 | > 100 | > 100 | > 100 | > 100 | > 100 | > 100 | > 100 |  | > 100 | > 100 | > 100
CN1C(=O)C(=Cc2ccc(Br)cc2)C(=O)N(C)C1=O | > 100 | > 100 |  | > 100 | > 100 | > 100 |  | > 100 |  | > 100 | > 100 | 
O=c1cccccc1[O-].O=c1cccccc1[O-].O=c1cccccc1[O-].[Nd+3] | > 100 | > 100 | > 100 |  | 88 | > 100 |  | > 100 |  | > 100 |  | > 100
Cc1cc2c(cc1Cl)SC(NNCCO)=NS2(=O)=O | > 100 | > 100 | > 100 | > 100 | > 100 | > 100 | > 100 | > 100 |  | > 100 | > 100 | > 100
CN1CCS(=O)(=O)NC(Cc2ccccc2)C(=O)N2CCCC2C1=O (stereo not drawn) | > 100 | > 100 | > 100 |  | > 100 | > 100 |  | > 100 |  | > 100 |  | > 100
CC(CC(=O)N1C2CC3CCC2(CS1(=O)=O)C3(C)C)[Si](C)(C)C (stereo not drawn) | > 100 | > 100 | > 100 | > 100 |  | > 100 | > 100 | > 100 | > 100 | > 100 | > 100 | > 100

Structure (SMILES) | TGI [1] [µM] | TGI [2] [µM] | TGI [3] [µM] | TGI [4] [µM] | TGI [5] [µM] | TGI [6] [µM] | TGI [7] [µM] | TGI [8] [µM] | TGI [9] [µM] | TGI [10] [µM] | TGI [11] [µM] | TGI [12] [µM]
c1ccc2cc(C3NCCc4[nH]cnc43)ccc2c1 (stereo not drawn) | > 100 | > 100 | > 100 |  | > 100 | > 100 |  | 70.9 |  | 57.9 |  | > 100
Cc1cn(C2CC(O)C(Cn3nncc3Cn3cnc4c(N)ncnc43)O2)c(=O)[nH]c1=O (stereo not drawn) | > 100 | > 100 |  | > 100 | > 100 | > 100 | > 100 | > 100 | > 100 | > 100 |  | > 100
c1ccc2c(c1)nc1ccccn12 | > 100 | > 100 | > 100 | > 100 | > 100 | > 100 | > 100 | > 100 | > 100 | > 100 |  | > 100
O=C1C(Cl)C(c2ccc(O)cc2)N1n1cnc2ccccc2c1=O (stereo not drawn) | 25.6 | > 96.3 | > 68.8 |  | 48.4 | > 100 |  | > 100 |  | 93.4 |  | > 100
N#CCCC(C#N)(C#N)CCC#N | > 100 | > 100 | > 100 |  | > 100 | > 100 |  | > 100 |  | > 100 |  | > 100
CC(=Nc1ccc(Cl)cc1)c1ccncc1 | > 100 | > 100 | > 100 | > 100 |  | > 100 | > 100 | > 100 | > 100 | > 100 | > 100 | 
Cc1ccccc1N(CCC#N)C1=NN(C(=O)CC(=O)Nc2ccc(Cl)cc2)C(c2ccccc2)C1 (stereo not drawn) | > 100 | > 100 | > 100 |  | > 100 | > 100 |  | > 100 |  | > 100 |  | > 100
Cc1n[nH]c(=O)n1/N=C/c1ccco1 | > 100 | > 100 | > 100 | > 100 | > 100 | > 100 | > 100 | > 100 |  | > 100 | > 100 | 
COc1ccc2nc3ccc(OC)cc3c(S(=O)Cc3ccccc3)c2c1 (stereo not drawn) | 15.2 | 37.5 | 10.6 | 5.85 | 28.5 | 35.4 | 33.8 | 20.9 |  | > 23.6 | 30.8 | 21.5
COc1cc2ccnc(C#N)c2cc1OCc1ccccc1 | > 100 | > 100 | > 100 |  |  | > 100 |  | > 100 |  | > 100 |  | 
Cn1c2ncccc2n2c(=O)cc(O)cc12 | > 100 | > 100 | > 100 | > 100 | > 100 | > 100 |  | > 100 | > 100 | 60.1 | > 100 | 31.5
c1cc2c(cc1C1OCC3C(c4ccc5c(c4)OCO5)OCC13)OCO2 (stereo not drawn) | > 100 | > 100 | > 100 |  | > 100 | > 100 |  | > 100 |  | > 100 |  | > 100
CN1CCCS/C1=C1/SC(=S)N(c2ccccc2)C1=O | > 100 | > 100 | > 100 |  | > 100 | > 100 |  | > 100 |  | > 100 |  | > 100
COc1ccc(S(=O)(=O)N/N=C(\C)CN2C(=O)c3ccccc3C2=O)cc1OC | > 100 | > 100 | > 100 |  | > 100 | > 100 |  | > 100 |  | > 100 |  | > 100
CN(C)CC1(Cc2ccccc2)CC/C(=C\c2ccccc2)C1=O (stereo not drawn) | > 100 | > 100 | 52.6 |  | > 100 | > 100 |  | > 100 |  | 67.5 |  | > 100
O=C1CCC(=O)c2ccccc2N1 | > 100 | > 100 | > 100 |  |  | > 100 |  | > 100 |  | > 100 |  | > 100
COc1cc(C2C(C(=O)NCc3ccccc3)=C(C)NC(C)=C2C(=O)NCc2ccccc2)ccc1O | > 100 | 90.5 | 38 |  | > 100 | > 100 |  | > 100 |  | 55.8 |  | > 100
COc1cc2c(cc1NC(=O)c1ccccc1)c1c(n2S(=O)(=O)c2ccccc2)CCN(S(=O)(=O)c2ccccc2)C1 | > 100 | > 100 | > 100 | > 100 | > 100 |  | > 100 | > 100 |  | > 100 |  | > 100
